Results on 5 molecules are retold here after US20070105721A1, “Vinylogous 4-Hpyrones and their use in promoting plant growth” (priority 2003, published 2007).

Common to all, as to assay type: in vivo
For experiment [1], the system named is Grand Rapids Lettuce seeds (Waltham strain). Nature of the experiment: Grand Rapids bioassay. The settings on record: for Germination, Grand Rapids: compounds isolated from smoke, mean (SEM). As to the method:
Grand Rapids Lettuce seeds (Waltham strain) were obtained from R.B. Dessert Seed Co. and were frozen in sachets until use. For testing of aqueous samples, 2.5 mL of test solution was applied to three replicates of 40-50 seeds in Petri dishes (90 mm) lined with two layers of Whatman No. 1 filter paper (7 cm). Millipore filtered water (MP water) was used as a control for each experiment and dilutions of each sample were used to ensure the optimum concentration range for activity. Fractions were reconstituted to their original concentration (before fractionation) and dilutions were made using MP water. Petri dishes were sealed with a layer of plastic wrap, and stored in a light proof container. All manipulations involving the seed were carried out in a dark room and germinants, based on the appearance of a radicle, were scored after 48 hours incubation.

In experiment [2] the test system is Conostylis aculeata seeds. Description: Native bioassay. As to conditions: compounds isolated from smoke; mean (SEM). The procedure:
(§1) Conostylis aculeata and Stylidium affine seeds were obtained from Nindethana seed service and stored before use. For testing of aqueous samples, three replicates of 20-30 sterilised seeds were added to UV sterilised petri dishes (90 mm), containing two Whatman No. 1 filter papers (7 cm) moistened with the filtered test solution (2.5 mL, 0.22 μm). MP water was used as a control for each experiment and dilutions of each sample were used to ensure the optimum concentration range for activity. Petri dishes were then sealed with parafilm and incubated in the dark at 20±1° C. The seeds were scored on a weekly basis with optimum germination achieved between 4-6 weeks.

The test system of experiment [3] is Stylidium affine seeds. Description: Native bioassay. The settings on record: compounds isolated from smoke; mean (SEM). The procedure: as §1
The mark [4] stands for this setting: 100 ppm, * = inhibits germination at this concentration.

On to `CCOC(=O)C=C1C=COC=C1` [Compound 5a, ethyl 2-(4H-pyran-4-ylidene) acetate], for which the “Germination of formula (5) analogues” value in experiment [1] (1 ppm) is reported as 86.7 (±7.4); in experiment [1] (10 ppm), 94.7 (±0.4); in experiment [1] (100 ppb), 66.9 (±10.2); in experiment [1] (setting [4]) it was 99.1 (±0.9).

In the case of `CCOC(=O)C(SC(C)=O)=C1C=COC=C1` [Compound 5b, ethyl 2-(acetylthio)-2-(4H-pyran-4-ylidene) acetate], the “Germination of formula (5) analogues” value in experiment [1] (1 ppm) is listed as 64.7 (±4.5); in experiment [1] (10 ppm) it was 82.6 (±3.4); in experiment [1] (100 ppb), 54.3 (±7.2); in experiment [1] (setting [4]), “*39.4 (±2.7)”.

For `CC1=CC(=CC(=O)c2ccccc2)C=C(C)O1` [Compound 5c, 2-(2,6-dimethyl-4H-pyran-4-ylidene)-1-phenylethanone], the “Germination of formula (5) analogues” value in experiment [1] (1 ppm) is given as 54.3 (±3.1); in experiment [1] (10 ppm), 69.3 (±4.4); in experiment [1] (100 ppb), 53.2 (±4.1); in experiment [1] (setting [4]) it was 74.1 (±6.7).

On to `O=C1C=C(c2ccco2)CO1` [Compound L-1, 2,3′-bifuran-5′(2′H)-one], for which the “Germination, Grand Rapids” value in experiment [1] is listed as 42.4 (6.6) %. Moreover, the “Germination, Conostylis aculeata” value in experiment [2] is 7.5 (1.3) %. In addition, the “Germination, Stylidium affine” value in experiment [3] was 0%.

`Cc1cc(=O)oc2ccoc12` [Compound L-3, 7-methyl-5H-furo[3,2-b]pyran-5-one]: in experiment [1], the “Germination, Grand Rapids” value is 42.1 (1.5) %. For the same molecule, the “Germination, Conostylis aculeata” value in experiment [2] is given as 11.6 (2.5) %. In addition, the “Germination, Stylidium affine” value in experiment [3] worked out at 0%.
